The results in this text go back to patent US20260022142A1, “MACROCYCLIC IMMUNOMODULATORS” (Bristol-Myers Squibb Company, priority 2022, published 2026).

Bridge positions count the residues as written; N and C are the ends. Square brackets hold non-standard residues; d marks the D form. Peptide text beside a SMILES is read from it. * marks the point of attachment. ξ: configuration not given here. Phe(4-COOH) = N[C@@H](Cc1ccc(C(=O)O)cc1)C(=O)O; Bip = N[C@@H](Cc1ccc(-c2ccccc2)cc1)C(=O)O; Phe(3-Me) = Cc1cccc(C[C@H](N)C(=O)O)c1; Cha = N[C@@H](CC1CCCCC1)C(=O)O; Cit = NC(=O)NCCC[C@H](N)C(=O)O; Thr(3ξ) = CC(O)[C@H](N)C(=O)O; Carboxymethyl = O=C(O)C*; Orn = NCCC[C@H](N)C(=O)O; Aun = NCCCCCCCCCCC(=O)O; Dab = NCC[C@H](N)C(=O)O; Dap = NC[C@H](N)C(=O)O; AEEA = NCCOCCOCC(=O)O

Usually IC50 stands for the concentration that inhibits the measured activity by half.

For this assay, the target named is T1, PD-1/PD-L1 interaction (PE-labeled human PD-L1-Ig binding to Jurkat cell line over-expressing human PD-1) (Homo sapiens, UniProt Q15116).
T1 construct: expressed in transfected cells; host or cells: Jurkat
T1 sequence (Q15116 25-288): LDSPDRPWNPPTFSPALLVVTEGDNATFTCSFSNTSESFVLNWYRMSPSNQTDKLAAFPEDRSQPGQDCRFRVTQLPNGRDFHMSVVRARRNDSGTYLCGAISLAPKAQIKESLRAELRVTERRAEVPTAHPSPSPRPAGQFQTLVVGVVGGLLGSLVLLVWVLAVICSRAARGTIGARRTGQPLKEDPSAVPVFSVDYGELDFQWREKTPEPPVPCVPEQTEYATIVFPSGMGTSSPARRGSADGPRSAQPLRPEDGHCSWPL
Briefly: Jurkat-PD-1 Cell Binding High-Content Screening Assay (CBA). Conditions: Jurkat cell line over-expressing human PD-1; PE-labeled PD-L1-Ig 20 nM final; read-out: Jurkat hPD1-PDL1 IC50. In kind it is cell-based. The method, boiled down:
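Human PD-L1-Ig carrying a covalent PE label on its Ig tag serves as the probe, applied at 20 nM final to compound-treated (2 h, 37° C) Jurkat-hPD-1 cells in medium with 10% fetal calf serum. After one hour, fixation and nuclear staining precede high-content image analysis.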
`CC(C)C[C@H]1NC(=O)[C@H](CCCN)NC(=O)[C@H](C(C)C)NC(=O)[C@H](Cc2ccc(-c3ccccc3)cc2)NC(=O)[C@H](C(C)C)NC(=O)[C@H](Cc2c[nH]c3ccccc23)NC(=O)[C@H](CC(=O)O)NC(=O)[C@H](Cc2ccc(OCC(=O)O)cc2)NC(=O)[C@H](Cc2ccc(OCC(=O)O)cc2)NC(=O)CSC[C@@H](C(=O)N[C@@H](CCN)C(=O)NCCCCCCCCCCC(=O)O)NC(=O)[C@H](CCCN)NC(=O)[C@H](C(C)C)NC(=O)[C@H](CC2CCCCC2)NC(=O)[C@H](CCN)NC1=O` [Compound 2561] ({CH2CO}-Y(Carboxymethyl)Y(Carboxymethyl)DWV[Bip]V[Orn][dL][Dab][Cha]V[Orn]C[Dab][Aun]-OH; thioether N-14): the IC50 was 14.6 nM.

As for `CC(C)C[C@H]1NC(=O)[C@H](CCCN)NC(=O)[C@H](C(C)C)NC(=O)[C@H](Cc2ccc(-c3ccccc3)cc2)NC(=O)[C@H](C(C)C)NC(=O)[C@H](Cc2c[nH]c3ccccc23)NC(=O)[C@H](CC(=O)O)NC(=O)[C@H](Cc2ccc(OCC(=O)O)cc2)NC(=O)[C@H](Cc2ccc(OCC(=O)O)cc2)NC(=O)CSC[C@@H](C(=O)N[C@@H](CCN)C(=O)NCCCCCCCCCCC(=O)O)NC(=O)[C@H](CN)NC(=O)[C@H](C(C)C)NC(=O)[C@H](CC2CCCCC2)NC(=O)[C@H](CCN)NC1=O` [Compound 2562] ({CH2CO}-Y(Carboxymethyl)Y(Carboxymethyl)DWV[Bip]V[Orn][dL][Dab][Cha]V[Dap]C[Dab][Aun]-OH; thioether N-14), the IC50 was 39.2 nM.

For the compound `CC(C)C[C@H]1NC(=O)[C@H](CCCN)NC(=O)[C@H](C(C)C)NC(=O)[C@H](Cc2ccc(-c3ccccc3)cc2)NC(=O)[C@H](C(C)C)NC(=O)[C@H](Cc2c[nH]c3ccccc23)NC(=O)[C@H](CC(=O)O)NC(=O)[C@H](Cc2ccc(C(=O)O)cc2)NC(=O)[C@H](Cc2ccc(OCC(=O)O)cc2)NC(=O)CSC[C@@H](C(=O)NCCOCCOCC(=O)NCCCCCCCCCCC(=O)O)NC(=O)[C@H](CCCCN)NC(=O)[C@H](C(C)C)NC(=O)[C@H](CC2CCCCC2)NC(=O)[C@H](CCN)NC1=O` [Compound 2563] ({CH2CO}-Y(Carboxymethyl)[Phe(4-COOH)]DWV[Bip]V[Orn][dL][Dab][Cha]VKC[AEEA][Aun]-OH; thioether N-14), the IC50 amounted to 29.3 nM.

With `CC(C)C[C@H]1NC(=O)[C@H](CCCN)NC(=O)[C@H](C(C)C)NC(=O)[C@H](Cc2ccc(-c3ccccc3)cc2)NC(=O)[C@H](C(C)C)NC(=O)[C@H](Cc2c[nH]c3ccccc23)NC(=O)[C@H](CC(=O)O)NC(=O)[C@H](Cc2ccc(OCC(=O)O)cc2)NC(=O)[C@H](Cc2ccc(OCC(=O)O)cc2)NC(=O)CSC[C@@H](C(=O)NCCOCCOCC(=O)NCCCCCCCCCCC(=O)O)NC(=O)[C@H](CCCNC(=N)N)NC(=O)[C@H](C(C)C)NC(=O)[C@H](CC2CCCCC2)NC(=O)[C@H](CCN)NC1=O` [Compound 2564] ({CH2CO}-Y(Carboxymethyl)Y(Carboxymethyl)DWV[Bip]V[Orn][dL][Dab][Cha]VRC[AEEA][Aun]-OH; thioether N-14), the IC50 was determined as 10 nM.

Consider `CC(C)C[C@H]1NC(=O)[C@H](CCCN)NC(=O)[C@H](C(C)C)NC(=O)[C@H](Cc2ccc(-c3ccccc3)cc2)NC(=O)[C@H](C(C)C)NC(=O)[C@H](Cc2c[nH]c3ccccc23)NC(=O)[C@H](CC(=O)O)NC(=O)[C@H](Cc2ccc(OCC(=O)O)cc2)NC(=O)[C@H](CN)NC(=O)CSC[C@@H](C(=O)NCCOCCOCC(=O)NCCCCCCCCCCC(=O)O)NC(=O)[C@H](CCCCN)NC(=O)[C@H](C(C)C)NC(=O)[C@H](CC2CCCCC2)NC(=O)[C@H](CCN)NC1=O` [Compound 2565] ({CH2CO}-[Dap]Y(Carboxymethyl)DWV[Bip]V[Orn][dL][Dab][Cha]VKC[AEEA][Aun]-OH; thioether N-14), for which the IC50 amounted to 5.4 nM.

As to `Cc1cccc(C[C@@H]2NC(=O)[C@H](CC(=O)O)NC(=O)[C@H](Cc3ccc(OCC(=O)O)cc3)NC(=O)[C@H](CN)NC(=O)CSC[C@@H](C(=O)NCCOCCOCC(=O)NCCCCCCCCCCC(=O)O)NC(=O)[C@H](CN)NC(=O)[C@H](C(C)C)NC(=O)[C@H](CC3CCCCC3)NC(=O)[C@H](CCN)NC(=O)[C@@H](CC(C)C)NC(=O)[C@H](CCCN)NC(=O)[C@H](C(C)C)NC(=O)[C@H](Cc3ccc(-c4ccccc4)cc3)NC(=O)[C@H](C(C)C)NC2=O)c1` [Compound 2566] ({CH2CO}-[Dap]Y(Carboxymethyl)D[Phe(3-Me)]V[Bip]V[Orn][dL][Dab][Cha]V[Dap]C[AEEA][Aun]-OH; thioether N-14), the IC50 stood at 9.4 nM.

For the compound `Cc1cccc(C[C@@H]2NC(=O)[C@H](CC(=O)O)NC(=O)[C@H](Cc3ccc(OCC(=O)O)cc3)NC(=O)[C@H](CN)NC(=O)CSC[C@@H](C(=O)NCCOCCOCC(=O)NCCCCCCCCCCC(=O)O)NC(=O)[C@H](CCCN)NC(=O)[C@H](C(C)C)NC(=O)[C@H](CC3CCCCC3)NC(=O)[C@H](CCN)NC(=O)[C@@H](CC(C)C)NC(=O)[C@H](CCCN)NC(=O)[C@H](C(C)C)NC(=O)[C@H](Cc3ccc(-c4ccccc4)cc3)NC(=O)[C@H](C(C)C)NC2=O)c1` [Compound 2567] ({CH2CO}-[Dap]Y(Carboxymethyl)D[Phe(3-Me)]V[Bip]V[Orn][dL][Dab][Cha]V[Orn]C[AEEA][Aun]-OH; thioether N-14), the IC50 stood at 5.3 nM.

For `Cc1cccc(C[C@@H]2NC(=O)[C@H](CC(=O)O)NC(=O)[C@H](Cc3ccc(OCC(=O)O)cc3)NC(=O)[C@H](CN)NC(=O)CSC[C@@H](C(=O)NCCOCCOCC(=O)NCCCCCCCCCCC(=O)O)NC(=O)[C@H](CCCNC(=N)N)NC(=O)[C@H](C(C)C)NC(=O)[C@H](CC3CCCCC3)NC(=O)[C@H](CCN)NC(=O)[C@@H](CC(C)C)NC(=O)[C@H](CCCN)NC(=O)[C@H](C(C)C)NC(=O)[C@H](Cc3ccc(-c4ccccc4)cc3)NC(=O)[C@H](C(C)C)NC2=O)c1` [Compound 2568] ({CH2CO}-[Dap]Y(Carboxymethyl)D[Phe(3-Me)]V[Bip]V[Orn][dL][Dab][Cha]VRC[AEEA][Aun]-OH; thioether N-14), the IC50 was determined as 12.7 nM.

Regarding `Cc1cccc(C[C@@H]2NC(=O)[C@H](CC(=O)O)NC(=O)[C@H](Cc3ccc(OCC(=O)O)cc3)NC(=O)[C@H](CN)NC(=O)CSC[C@@H](C(=O)N[C@@H](CCN)C(=O)NCCOCCOCC(=O)NCCCCCCCCCCC(=O)O)NC(=O)[C@H](C(C)O)NC(=O)[C@H](Cc3ccc(O)cc3)NC(=O)[C@H](CC3CCCCC3)NC(=O)[C@H](CCN)NC(=O)[C@@H](CC(C)C)NC(=O)[C@H](CCCN)NC(=O)[C@H](Cc3ccc(O)cc3)NC(=O)[C@H](Cc3ccc(-c4ccccc4)cc3)NC(=O)[C@H](Cc3ccc(O)cc3)NC2=O)c1` (stereo partly drawn) [Compound 2569] ({CH2CO}-[Dap]Y(Carboxymethyl)D[Phe(3-Me)]Y[Bip]Y[Orn][dL][Dab][Cha]Y[Thr(3ξ)]C[Dab][AEEA][Aun]-OH; thioether N-14), the IC50 amounted to 80.2 nM.

Regarding `Cc1cccc(C[C@@H]2NC(=O)[C@H](CC(=O)O)NC(=O)[C@H](Cc3ccc(OCC(=O)O)cc3)NC(=O)[C@H](CN)NC(=O)CSC[C@@H](C(=O)N[C@@H](CCN)C(=O)NCCOCCOCC(=O)NCCCCCCCCCCC(=O)O)NC(=O)[C@H](CO)NC(=O)[C@H](Cc3ccc(O)cc3)NC(=O)[C@H](CC3CCCCC3)NC(=O)[C@H](CCN)NC(=O)[C@@H](CC(C)C)NC(=O)[C@H](CCCN)NC(=O)[C@H](Cc3ccc(O)cc3)NC(=O)[C@H](Cc3ccc(-c4ccccc4)cc3)NC(=O)[C@H](Cc3ccc(O)cc3)NC2=O)c1` [Compound 2570] ({CH2CO}-[Dap]Y(Carboxymethyl)D[Phe(3-Me)]Y[Bip]Y[Orn][dL][Dab][Cha]YSC[Dab][AEEA][Aun]-OH; thioether N-14), the IC50 amounted to 31.9 nM.

With `Cc1cccc(C[C@@H]2NC(=O)[C@H](CC(=O)O)NC(=O)[C@H](Cc3ccc(OCC(=O)O)cc3)NC(=O)[C@H](CN)NC(=O)CSC[C@@H](C(=O)N[C@@H](CCN)C(=O)NCCOCCOCC(=O)NCCCCCCCCCCC(=O)O)NC(=O)[C@H](C(C)O)NC(=O)[C@H](Cc3ccc(O)cc3)NC(=O)[C@H](CC3CCCCC3)NC(=O)[C@H](CCN)NC(=O)[C@@H](CC(C)C)NC(=O)[C@H](CCCN)NC(=O)[C@H](CCCNC(N)=O)NC(=O)[C@H](Cc3ccc(-c4ccccc4)cc3)NC(=O)[C@H](Cc3ccc(O)cc3)NC2=O)c1` (stereo partly drawn) [Compound 2571] ({CH2CO}-[Dap]Y(Carboxymethyl)D[Phe(3-Me)]Y[Bip][Cit][Orn][dL][Dab][Cha]Y[Thr(3ξ)]C[Dab][AEEA][Aun]-OH; thioether N-14), the IC50 turned out to be 13 nM.

In the case of `Cc1cccc(C[C@@H]2NC(=O)[C@H](CC(=O)O)NC(=O)[C@H](Cc3ccc(OCC(=O)O)cc3)NC(=O)[C@H](CN)NC(=O)CSC[C@@H](C(=O)N[C@@H](CCN)C(=O)NCCOCCOCC(=O)NCCCCCCCCCCC(=O)O)NC(=O)[C@H](CCCN)NC(=O)[C@H](Cc3ccc(O)cc3)NC(=O)[C@H](CC3CCCCC3)NC(=O)[C@H](CCN)NC(=O)[C@@H](CC(C)C)NC(=O)[C@H](CCCN)NC(=O)[C@H](CCCNC(N)=O)NC(=O)[C@H](Cc3ccc(-c4ccccc4)cc3)NC(=O)[C@H](Cc3ccc(O)cc3)NC2=O)c1` [Compound 2572] ({CH2CO}-[Dap]Y(Carboxymethyl)D[Phe(3-Me)]Y[Bip][Cit][Orn][dL][Dab][Cha]Y[Orn]C[Dab][AEEA][Aun]-OH; thioether N-14), the IC50 was 21.6 nM.

Regarding `Cc1cccc(C[C@@H]2NC(=O)[C@H](CC(=O)O)NC(=O)[C@H](Cc3ccc(OCC(=O)O)cc3)NC(=O)[C@H](CN)NC(=O)CSC[C@@H](C(=O)N[C@@H](CCN)C(=O)NCCOCCOCC(=O)NCCCCCCCCCCC(=O)O)NC(=O)[C@H](C(C)O)NC(=O)[C@H](Cc3ccc(O)cc3)NC(=O)[C@H](CC3CCCCC3)NC(=O)[C@H](CCN)NC(=O)[C@@H](CC(C)C)NC(=O)[C@H](CCCN)NC(=O)[C@H](C(C)C)NC(=O)[C@H](Cc3ccc(-c4ccccc4)cc3)NC(=O)[C@H](Cc3ccc(O)cc3)NC2=O)c1` (stereo partly drawn) [Compound 2573] ({CH2CO}-[Dap]Y(Carboxymethyl)D[Phe(3-Me)]Y[Bip]V[Orn][dL][Dab][Cha]Y[Thr(3ξ)]C[Dab][AEEA][Aun]-OH; thioether N-14), the IC50 turned out to be 47.6 nM.
